Type in all cases: in vivo
The subject of assay [1] is Alopecurus myosuroides (ALOMY). Briefly: Pre-emergence biological efficacy, glasshouse pot test. To be noted: 312 h, pre-emergence, 1,000 g/ha, evaluated after 13 days (100=total damage; 0=no damage), read-out: Percentage damage ALOMY. The essentials: (§1)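 Damage was rated on a 0–100 scale 13 days after treatment, with plants kept at 24/16° C, 14 h light and 65% humidity. The pre-emergence spray, at 1000 or 250 g/ha in acetone/water 50:50 with 0.5% Tween 20, was applied one day after sowing.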

In assay [2] the test system is Amaranthus retoflexus (AMARE). Described as above. Conditions: Amaranthus retroflexus, 312 h; pre-emergence, 1,000 g/ha, evaluated after 13 days (100=total damage; 0=no damage); read-out: Percentage damage AMARE. The essentials: as §1
In assay [3] the test system is Echinochloa crus-galli (ECHCG). The description is as above. Conditions: 312 h, pre-emergence, 1,000 g/ha, evaluated after 13 days (100=total damage; 0=no damage), read-out: Percentage damage ECHCG. Summed up: as §1
Assay [4] has as its system Ipomea hederaceae (IPOHE). The assay is described as above. Conditions: Ipomoea hederacea, 312 h; pre-emergence, 1,000 g/ha, evaluated after 13 days (100=total damage; 0=no damage); read-out: Percentage damage IPOHE. The essentials: as §1
Assay [5] concerns Setaria faberi (SETFA). Described as above. To be noted: 312 h, pre-emergence, 1,000 g/ha, evaluated after 13 days (100=total damage; 0=no damage), read-out: Percentage damage SETFA. The essentials:
as §1

Assay [6] deals with Solanum nigrum (SOLNI). Described as above. To be noted: 312 h, pre-emergence, 1,000 g/ha, evaluated after 13 days (100=total damage; 0=no damage), read-out: Percentage damage SOLNI. Summed up:
as §1

For assay [7], the system named is Alopecurus myosuroides (ALOMY). In words: Post-emergence biological efficacy, glasshouse pot test. Conditions: 312 h, post-emergence, 1,000 g/ha, evaluated after 13 days (100=total damage; 0=no damage), read-out: Percentage damage caused to weed species, ALOMY. The essentials:
(§2)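 Scored 13 days after spraying on a 0 (no damage) to 100 (total damage) scale. Treatment was a post-emergence spray at 1000 or 250 g/ha, from acetone/water 50:50 plus 0.5% Tween 20, onto 8-day-old plants in soil pots. Growth at 24/16° C, 14 h photoperiod, 65% humidity, watered twice daily.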

Assay [8] deals with Amaranthus retoflexus (AMARE). The assay is described as above. To be noted: Amaranthus retroflexus, 312 h; post-emergence, 1,000 g/ha, evaluated after 13 days (100=total damage; 0=no damage); read-out: Percentage damage caused to weed species, AMARE. The essentials: as §2
For assay [9], the system named is Echinochloa crus-galli (ECHCG). Described as above. Conditions: 312 h, post-emergence, 1,000 g/ha, evaluated after 13 days (100=total damage; 0=no damage), read-out: Percentage damage caused to weed species, ECHCG. The essentials: as §2
The subject of assay [10] is Ipomea hederaceae (IPOHE). Described as above. To be noted: Ipomoea hederacea, 312 h; post-emergence, 1,000 g/ha, evaluated after 13 days (100=total damage; 0=no damage); read-out: Percentage damage caused to weed species, IPOHE. The essentials:
as §2

Assay [11] has as its system Setaria faberi (SETFA). The description is as above. Conditions: 312 h, post-emergence, 1,000 g/ha, evaluated after 13 days (100=total damage; 0=no damage), read-out: Percentage damage caused to weed species, SETFA. The essentials:
as §2

In assay [12] the test system is Solanum nigrum (SOLNI). The assay is described as above. To be noted: 312 h, post-emergence, 1,000 g/ha, evaluated after 13 days (100=total damage; 0=no damage), read-out: Percentage damage caused to weed species, SOLNI. The essentials:
as §2

We go through eight compounds from patent publication US20110086759A1, “CHEMICAL COMPOUNDS” (SYNGENTA CROP PROTECTION, INC., priority 2007, published 2011).

For the compound `COC(=O)c1nc(C2CC2)nc(NC(c2ccc(Cl)cc2)C2CC2)c1Cl` (stereo not drawn) [Compound 4-200, 5-Chloro-4-[1-(4-chlorophenyl)-1-(cyclopropyl)methyl-amino]-2-cyclopropyl-6-methoxycarbonyl-pyrimidine], the pest or weed control at 1000 g/ha was found to be 0% in [1]; 20% in assay [2]; 0% in [3]; 50% in assay [4]; 0% in assay [5]; 0% in assay [6]. Besides, the pest or weed control at 1000 g/ha amounted to 20% in [7]; 100% in [8]; 20% in [9]; 90% in assay [10]; 40% in assay [11]; 80% in assay [12].
For `COC(=O)c1nc(C2CC2)nc(NC(CO)C2CCOC2)c1Cl` (stereo not drawn) [Compound 4-201, 5-Chloro-2-cyclopropyl-4-(2-hydroxy-1-tetrahydrofuran-3-yl-ethylamino)-6-methoxycarbonyl-pyrimidine], the pest or weed control at 1000 g/ha was found to be 0% in [1]; 100% in [2]; 20% in [3]; 100% in [4]; 10% in [5]; 100% in [6]. Also, the pest or weed control at 1000 g/ha in [7] is 10%; in assay [8], 100%; in assay [9] it was 10%; in [10], 60%; in assay [11], 20%; in assay [12] it was 90%.
`COC(=O)c1nc(C2CC2)nc(NC(CO)C2CCOCC2)c1Cl` (stereo not drawn) [Compound 4-202, 5-Chloro-2-cyclopropyl-4-(2-hydroxy-1-tetrahydropyran-4-yl-ethylamino)-6-methoxycarbonyl-pyrimidine]: the pest or weed control at 1000 g/ha in [1] is 20%; in assay [2], 60%; in [3] it was 30%; in assay [4] it was 100%; in assay [5], 30%; in assay [6], 70%. Also, the pest or weed control at 1000 g/ha in [7] came out at 10%; in assay [8], 100%; in [9] it was 0%; in assay [10] it was 50%; in assay [11], 30%; in [12], 80%.
For `COC(=O)c1nc(C2CC2)nc(NC(CO)c2ccccc2)c1Cl` (stereo not drawn) [Compound 4-203, 5-Chloro-2-cyclopropyl-4-(2-hydroxy-1-phenyl-ethylamino)-6-methoxycarbonyl-pyrimidine], the pest or weed control at 1000 g/ha in [1] came to 30%; in assay [2] it was 100%; in assay [3] it was 60%; in [4] it was 100%; in assay [5], 60%; in assay [6] it was 80%. Further, the pest or weed control at 1000 g/ha in assay [7] amounted to 40%; in [8] it was 100%; in assay [9], 30%; in assay [10], 50%; in assay [11] it was 40%; in assay [12], 80%.
Take `COC(=O)c1nc(C2CC2)nc(NC(CS(C)(=O)=O)c2ccc(OC)cc2)c1Cl` (stereo not drawn) [Compound 4-205, 5-Chloro-2-cyclopropyl-6-methoxycarbonyl-4-[1-(4-methoxy-phenyl)-2-methylsulphonyl-ethylamino]-pyrimidine]: the pest or weed control at 1000 g/ha in assay [1], in [2], in [3], in assay [4], in [5] and in assay [6] was 0% in each case. For the same compound, the pest or weed control at 1000 g/ha in [7] amounted to 0%; in assay [8], 20%; in assay [9], 0%; in [10] it was 20%; in assay [11] it was 0%; in assay [12], 10%.
As for `COC(=O)c1nc(C2CC2)nc(NC(C(=O)OC)c2ccccc2)c1Cl` (stereo not drawn) [Compound 4-210, 5-Chloro-2-cyclopropyl-6-methoxycarbonyl-4-(1-methoxy-carbonyl-1-phenyl-methylamino)-pyrimidine], the pest or weed control at 1000 g/ha worked out at 20% in [1]; 100% in [2]; 50% in assay [3]; 100% in assay [4]; 20% in [5]; 90% in [6]. Besides, the pest or weed control at 1000 g/ha amounted to 60% in assay [7]; 50% in assay [8]; 60% in assay [9]; 40% in assay [10]; 80% in assay [11]; 40% in assay [12].
As for `CCOC(=O)C(Nc1nc(C2CC2)nc(C(=O)OC)c1Cl)c1ccccc1` (stereo not drawn) [Compound 4-214, 5-Chloro-2-cyclopropyl-4-[(1-ethoxycarbonyl-1-phenyl)-methyl-amino]-6-methoxy-carbonylpyrimidine], the pest or weed control at 1000 g/ha in [1] was found to be 20%; in assay [2], 100%; in [3], 60%; in [4], 100%; in [5] it was 40%; in assay [6] it was 90%. Also, the pest or weed control at 1000 g/ha is 50% in assay [7]; 100% in assay [8]; 70% in [9]; 100% in assay [10]; 70% in assay [11]; 80% in assay [12].
Consider `COC(=O)c1nc(C2CC2)nc(NCCC2OCCO2)c1Cl` [Compound 4-216, 5-Chloro-2-cyclopropyl-4-[2-(1,3-dioxolan-2-yl)ethylamino]-6-methoxycarbonyl-pyrimidine], for which the pest or weed control at 1000 g/ha in assay [1] was determined as 30%; in assay [2], 100%; in assay [3], 40%; in [4], 100%; in [5] it was 40%; in assay [6] it was 90%. The pest or weed control at 1000 g/ha in [7] was 20%; in assay [8], 100%; in assay [9], 20%; in assay [10], 80%; in assay [11], 60%; in [12] it was 70%.
